Laboratory results taken from patent US20100120013A1, “PROCEDURE FOR LONG TERM CORNEAL CULTURE” (MB RESEARCH LABORATORIES, INC., priority 2008, published 2010).

Tested on: excised cultured porcine corneas
Conditions: pig, 5 min, 100 %

time in culture at which dosed corneas no longer retain NaFL stain (recovery): 3 to 10 days
SMILES: CCO [ethanol]
